SMILES strings stand for the structures. Where “and” joins values, the source holds several entries; their conditions need not be identical. Equal values may be shown once. Inconclusive results and toxic doses are left out.

In PubChem BioAssay AID248 (DTP/NCI, 2004) one finds T/C data, which are given here for 17 compounds.

The test system of the experiment is L1210 leukemia ip in BDF1 mice, survival T/C. As to the kind of experiment: NCI In Vivo Anticancer Drug Screen. Data for tumor model L1210 Leukemia (intraperitoneal) in B6D2F1 (BDF1) mice. As to conditions: endpoint: mean survival time, higher = longer survival. In a few lines: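 Value reflects the ratio of survival in compound-treated mice to survival in vehicle-treated controls, with both groups carrying the same transplanted tumor.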

The mark [1] stands for this setting: dose: 50.0 mg/kg/injection, schedule: Q01DX009 (ip), vehicle: Klucel (hydroxypropylcellulose) (HPC).
Setting [2] is: dose: 100.0 mg/kg/injection, schedule: Q01DX009 (ip), vehicle: Klucel (hydroxypropylcellulose) (HPC).
[3] abbreviates: dose: 200.0 mg/kg/injection, schedule: Q01DX009 (ip), vehicle: Klucel (hydroxypropylcellulose) (HPC).
Setting [4] is: dose: 100.0 mg/kg/injection, schedule: Q04DX003 (ip), vehicle: Klucel (hydroxypropylcellulose) (HPC).
The mark [5] stands for this setting: dose: 200.0 mg/kg/injection, schedule: Q04DX003 (ip), vehicle: Klucel (hydroxypropylcellulose) (HPC).
Setting [6] is: dose: 400.0 mg/kg/injection, schedule: Q04DX003 (ip), vehicle: Klucel (hydroxypropylcellulose) (HPC).
The mark [7] stands for this setting: dose: 100.0 mg/kg/injection, schedule: Q04DX003 (ip), vehicle: saline with Tween-80.
Setting [8] is: dose: 200.0 mg/kg/injection, schedule: Q04DX003 (ip), vehicle: saline with Tween-80.
[9] abbreviates: dose: 400.0 mg/kg/injection, schedule: Q04DX003 (ip), vehicle: saline with Tween-80.
The mark [10] stands for this setting: dose: 100.0 mg/kg/injection, schedule: Q01DX009 (ip), vehicle: saline with Tween-80.
Setting [11] is: dose: 25.0 mg/kg/injection, schedule: Q01DX009 (ip), vehicle: saline with Tween-80.
Setting [12] is: dose: 50.0 mg/kg/injection, schedule: Q01DX009 (ip), vehicle: saline with Tween-80.

As for `O=[N+]([O-])c1cc(Cl)ccc1S(=O)(=O)c1ccccc1`, the T/C was 99 % of control under setting [1], 99 % of control under setting [2] and 108 % of control under setting [3].
In the case of `Cc1cccc(C)c1NC(=O)c1c(Cl)c(Cl)c(Cl)c(Cl)c1C(=O)O`, the T/C is, setting by setting: (dose: 25.0 mg/kg/injection, schedule: Q01DX009 (ip), vehicle: Klucel (hydroxypropylcellulose) (HPC)) 95 % of control; under setting [1], 87 % of control; under setting [2], 94 % of control and 88 % of control; under setting [4], 102 % of control; under setting [5], 102 % of control; under setting [6], 107 % of control.
Take `C=C(C)CSc1ncnc2nc[nH]c12`: the T/C was 112 % of control (dose: 52.0 mg/kg/injection, schedule: Q01DX Z (ip), vehicle: other); 112 % of control (dose: 80.0 mg/kg/injection, schedule: Q01DX Z (ip), vehicle: other); 124 % of control (dose: 120.0 mg/kg/injection, schedule: Q01DX Z (ip), vehicle: other).
Turning to `CC1(C)C2CC=C(N3CCCCC3)C1C2` (stereo not drawn), the T/C is 96 % of control under setting [7], 96 % of control under setting [8] and 98 % of control under setting [9].
As to `ClC(Cl)(Cl)c1cccc(C(Cl)(Cl)Cl)c1`, the T/C under setting [2] was 121 % of control; the T/C under setting [4] is 105 % of control; the T/C under setting [3] is 101 % of control; the T/C under setting [5] was 95 % of control; the T/C under setting [6] is 95 % of control.
In the case of `COC1OCN(C)CC1(C)C` (stereo not drawn), the T/C (dose: 75.0 mg/kg/injection, schedule: Q01DX009 (ip), vehicle: saline) was 87 % of control; the T/C under setting [4] was 105 % of control; the T/C (dose: 150.0 mg/kg/injection, schedule: Q01DX009 (ip), vehicle: saline) was 95 % of control; the T/C under setting [5] is 102 % of control; the T/C (dose: 300.0 mg/kg/injection, schedule: Q01DX009 (ip), vehicle: saline) is 99 % of control.
On to `O=C1C(Br)=Cc2cccc3cccc1c23`, for which the T/C (dose: 25.0 mg/kg/injection, schedule: Q01DX009 (ip), vehicle: saline sonified) is 100 % of control; the T/C (dose: 50.0 mg/kg/injection, schedule: Q01DX009 (ip), vehicle: saline sonified) is 97 % of control; the T/C (dose: 100.0 mg/kg/injection, schedule: Q01DX009 (ip), vehicle: saline sonified) is 100 % of control; the T/C under setting [10] is 101 % of control; the T/C under setting [4] is 90 % of control; the T/C under setting [7] is 97 % of control. For the same compound, the T/C was 104 % of control (dose: 200.0 mg/kg/injection, schedule: Q01DX009 (ip), vehicle: saline with Tween-80); 95 % of control under setting [8]; 97 % of control (dose: 400.0 mg/kg/injection, schedule: Q01DX009 (ip), vehicle: saline with Tween-80); 87 % of control under setting [6]; 103 % of control under setting [9].
In the case of `Cc1cc(C(=O)CBr)c(CN2C(=O)c3ccccc3C2=O)c(=O)n1C`, the T/C (dose: 100.0 mg/kg/injection, schedule: Q01DX001 (ip), vehicle: saline with Tween-80) was 101 % of control.
As to `CN1CCc2ccccc2C1Cc1cc(OCc2ccccc2)ccc1N` (stereo not drawn), the T/C was 89 % of control (dose: 10.0 mg/kg/injection, schedule: Q01DX001 (ip), vehicle: carboxymethylcellulose (CMC)); 95 % of control (dose: 20.0 mg/kg/injection, schedule: Q01DX001 (ip), vehicle: carboxymethylcellulose (CMC)); 93 % of control (dose: 40.0 mg/kg/injection, schedule: Q01DX001 (ip), vehicle: carboxymethylcellulose (CMC)); 98 % of control (dose: 80.0 mg/kg/injection, schedule: Q01DX001 (ip), vehicle: carboxymethylcellulose (CMC)).
Turning to `COc1nc(N)nc2c1nnn2C1OC(CO)C(O)C1O` (stereo not drawn), the T/C runs as follows: (dose: 44.0 mg/kg/injection, schedule: Q01DX001 (ip), vehicle: Klucel (hydroxypropylcellulose) (HPC)) 108 % of control; (dose: 66.0 mg/kg/injection, schedule: Q01DX001 (ip), vehicle: Klucel (hydroxypropylcellulose) (HPC)) 103 % of control; (dose: 150.0 mg/kg/injection, schedule: Q01DX001 (ip), vehicle: Klucel (hydroxypropylcellulose) (HPC)) 122 % of control.
`C=CCn1c2ccccc2c2c(C)c3cnccc3c(C)c21`: the T/C was 97 % of control under setting [11]; 111 % of control (dose: 37.5 mg/kg/injection, schedule: Q04DX003 (ip), vehicle: saline); 102 % of control under setting [12]; 119 % of control (dose: 50.0 mg/kg/injection, schedule: Q04DX003 (ip), vehicle: saline with Tween-80); 186 % of control (dose: 75.0 mg/kg/injection, schedule: Q01DX009 (ip), vehicle: saline with Tween-80); 163 % of control (dose: 75.0 mg/kg/injection, schedule: Q04DX003 (ip), vehicle: saline). The T/C was 111 % of control under setting [10]; 184 % of control (dose: 125.0 mg/kg/injection, schedule: Q04DX003 (ip), vehicle: saline with Tween-80); 172 % of control (dose: 150.0 mg/kg/injection, schedule: Q01DX009 (ip), vehicle: saline with Tween-80); 156 % of control (dose: 300.0 mg/kg/injection, schedule: Q04DX003 (ip), vehicle: saline).
On to `NC(CCn1cnc2c(=O)[nH]cnc21)C(=O)O` (stereo not drawn), for which the T/C was 101 % of control under setting [4], 102 % of control under setting [5] and 96 % of control under setting [6].
Regarding `CC1CCCC[N-]1.CC1CCCC[N-]1.N#C[S-].N#C[S-].[Cu]` (stereo not drawn), the T/C reads like this: (dose: 5.0 mg/kg/injection, schedule: Q01DX001 (ip), vehicle: saline) 94 % of control; (dose: 10.0 mg/kg/injection, schedule: Q01DX001 (ip), vehicle: saline) 86 % of control; (dose: 20.0 mg/kg/injection, schedule: Q01DX001 (ip), vehicle: saline) 91 % of control; (dose: 40.0 mg/kg/injection, schedule: Q01DX001 (ip), vehicle: saline) 100 % of control.
On to `C[Si](C)(C)Br`, for which the T/C was 96 % of control (dose: 100.0 mg/kg/injection, schedule: Q01DX009 (ip), vehicle: saline); 87 % of control (dose: 200.0 mg/kg/injection, schedule: Q01DX009 (ip), vehicle: saline); 87 % of control (dose: 400.0 mg/kg/injection, schedule: Q01DX009 (ip), vehicle: saline).
Consider `Oc1ccc(Cl)cc1Cc1cc(Cl)cc(Cc2cc(Cl)ccc2O)c1O`, for which the T/C (dose: 12.5 mg/kg/injection, schedule: Q01DX009 (ip), vehicle: saline with Tween-80) was 98 % of control; the T/C under setting [11] was 102 % of control; the T/C under setting [12] was 109 % of control.
On to `CCNCCCOCC`, for which the T/C (dose: 50.0 mg/kg/injection, schedule: Q01DX009 (ip), vehicle: saline) was 91 % of control; the T/C (dose: 100.0 mg/kg/injection, schedule: Q04DX003 (ip), vehicle: saline) is 103 % of control; the T/C (dose: 200.0 mg/kg/injection, schedule: Q04DX003 (ip), vehicle: saline) is 95 % of control.
Consider `COC(=O)CCSP(=S)(Oc1ccccc1)Oc1ccccc1`, for which the T/C reads like this: under setting [2], 107 % of control; under setting [3], 105 % of control; (dose: 400.0 mg/kg/injection, schedule: Q01DX009 (ip), vehicle: Klucel (hydroxypropylcellulose) (HPC)) 96 % of control.
